From US6060568A, “Carbene transition metal catalysts” (The Governors of the University of Alberta, priority 1999, dated 2000) come the findings set out here.

Test [1] in a line: Low temperature and pressure slurry polymerization on catalyst screening unit (CSU). As to conditions: 10 psig. As for the experimental part: Low pressure and temperature slurry polymerization experiments were conducted on a catalyst screening unit (CSU) where polymerization occurs in a cyclohexane reaction media, ethylene is fed to the reactor on demand and is monitored by a mass flow meter. On the CSU, reaction temperatures are monitored and controlled by thermocouples and one RTD. Reactor temperature control is maintained by a HAAKE circulating water bath which has external thermostatic control via the thermocouple at the reactor core. Reactor temperature is maintained by the water from the bath entering the jacket-like coolant chamber surrounding the reactor. Reaction pressures are indicated by mechanical pressure gauges and monitored manually.
The CSU shares the purified ethylene and cyclohexane feeds with the solution semi-batch reactor (SBR). Ultra-High-Purity argon from PRAXAIR which is purified further by 13× and OXICLEAR on a separate gas purification unit is used for reactor system purging and solvent sparging. The polymerization products are quantitatively recovered for mass determination, and polymerization activities are then calculated based upon mass of product, millimoles of catalyst injected and reaction time.
Examples 25-32 were conducted on a catalyst screening unit (CSU).
Catalyst Concentration 50 μmol/L (Zr)
Catalyst Mole Ratio Al/Zr = 500/1
Polymethylaluminoxane (PMAO-IP)
Reaction Temperature Setpoint 35° C.
Reactor Pressure Setpoint 10 psig total
Stirring Speed ~2250 +/- 300 rpm Initially
Catalyst Concentration 50 μmol/L (M)
Catalyst Mole Ratio Al/B/M = 20/1.05/1
Modified Methylaluminoxane (MMAO-

The nature of test [2]: Solution phase ethylene polymerization, semi-batch reactor (SBR). As for the experimental part: (§1) All the solution polymerization experiments described below were conducted using an Autoclave Engineers Zipperclave reactor (500 mL). All the chemicals (solvent, catalyst and cocatalyst) were fed into the reactor batchwise except ethylene which was fed on demand. No product was removed during the polymerization reaction. As are known to those skilled in the art, all the feed streams were purified prior to feeding into the reactor by contact with various absorption media to remove catalysts killing impurities such as water, oxygen, sulfur and polar materials. All components were stored and manipulated under an atmosphere of purified argon or nitrogen. The reactor uses a programmable logical control (PLC) system with Wonderware 5.1 s, oftware for the process control. Ethylene polymerizations were performed in the reactor equipped with an air driven stirrer and an automatic temperature control system.
The catalyst was dissolved in toluene. The polymerization reaction time is typically 10 minutes. The reaction was terminated by adding 5 mL of methanol to the reactor and the polymer was recovered by evaporation of the solvent. The polymerization activities were calculated based on the ethylene consumption.
Examples 1-18 were conducted on a solution semi-batch reactor (SBR).
SBR Experimental Conditions with MAO Activation
Catalyst Concentration 200 μmol/L
PMAO-IP Al/Zr = 300 (mol/mol)
Reaction Temperature 160° C.
Reactor Pressure 140 psig total
Stirring Speed 2000 rpm
SBR Experirimental Conditions with Trinitylborate Activation
PMAO-IP 1 mmol/L as impurity scavenger
^a SBR standard MAO screening conditions.
^b Insitu alkylation: PMAOIP (Al/M = 20) premixed with catalyst, the
mixture and tritylborate solution were injected into the reactor
^c SBR standard trityl borate screening conditions.
^d Premix catalyst and cocatalyst.
^e Zr(Bz)4 as scavenger at 1.2 mmol/L. […]

Test [3] can be described thus: Gas phase polymerization, supported catalyst, semi-batch gas phase reactor. As to conditions: 200 psig, 90° C., 60 minutes; for Yield PE: 50-54 mg supported catalyst. From the text: The catalyst preparation methods described below employ typical techniques for the syntheses and handling of air-sensitive materials. Standard Schlenk and drybox techniques were used in the preparation of ligands, metal complexes, support substrates and supported catalyst systems. Solvents were purchased as anhydrous materials and further treated to remove oxygen and polar impurities by contact with a combination of activated alumina, molecular sieves and copper oxide on silica/alumina. Where appropriate, elemental compositions of the supported catalysts were measured by Neutron Activation analysis and a reported accuracy of ±1% (weight basis).
The supported catalysts were prepared by initially supporting MAO on a silica support, followed by deposition of the catalyst component.
(§2) All the polymerization experiments described below were conducted using a semi-batch, gas phase polymerization reactor of total internal volume of 2.2 L. Reaction gas mixtures, including ethylene were measured to the reactor on a continuous basis using a calibrated thermal mass flow meter, following passage through purification media as described above. A pre-determined mass of the catalyst sample was added to the reactor under the flow of the inlet gas with no pre-contact of the catalyst with any reagent, such as a catalyst activator. The catalyst was activated in situ (in the polymerization reactor) at the reaction temperature in the presence of the monomer, using a metal alkyl complex which has been previously added to the reactor to remove adventitious impurities. Purified and rigorously anhydrous sodium chloride was used as a catalyst dispersing agent.
The internal reactor temperature is monitored by a thermocouple in the polymerization medium and can be controlled at the required set point to +/-1.0° C. The duration of the polymerization experiment was one hour. Following the completion of the polymerization experiment, the polymer was separated from the sodium chloride and the yield determined. The following table illustrates bench scale gas phase reaction conditions.
Solvent 5-10 mL hexane added with catalyst
Operating Mode Gas Phase
(§3) Aluminum alkyl 25-30 wt. % triisobutyl aluminum
(§4) Reaction Pressure 200 psig
(§5) Reaction Temperature 90° C.
(§6) Reaction Time 60 minutes
Examples 19-22 are examples of the gas phase polymerization. The next table illustrates data concerning the Al/transition metal ratios of the supported catalyst, polymer yield and polymer properties.

Test [4] in a line: High temperature and pressure slurry polymerization, supported catalyst. Particulars: slurry in hexane, 200 psig, 90° C., 60 minutes. As for the experimental part:
The supported catalyst described in Part B was also used for the slurry polymerization tests.
as §2, with “a semi-batch” for “a semi-batch, gas phase polymerization”, “sample as” for “sample was”, “complex and solvent” for “complex”, “which have” for “which has”, “impurities.” for “impurities. Purified and rigorously anhydrous sodium chloride was used as a catalyst dispersing agent.”
The internal reactor temperature is monitored by a thermocouple in the polymerization medium and can be controlled at the required set point to +/-1.0° C. The duration of the polymerization experiment was one hour. Following the completion of the polymerization experiment, the slurry was transferred from the reactor to a bowl, and the solvent was left to evaporate. The following table illustrates bench scale slurry phase reaction conditions.
Operating Mode Slurry Phase
as §3, §4, §5, §6
Examples 23-24 are high pressure and temperature slurry polymerization examples. The next table illustrates data concerning the Al/transition metal ratios of the supported catalyst; polymer yield and polymer properties.

The nature of test [5]: Solution phase copolymerization of ethylene with 1-octene, semi-batch reactor (SBR). Particulars: [CPh3 ][B(C6 F5)4 ]; copolymerization with 20 mL of 1-octene; based on polymer weight. As for the experimental part: Polymer molecular weights and molecular weight distributions were measured by GPC (Waters 150-C) at 140° C. in 1,2,4-trichlorobenzene calibrated using polyethylene standards.
as §1
The catalyst was dissolved in toluene. The polymerization reaction time is typically 10 minutes. […] The polymerization activities were calculated based on the ethylene consumption. […]
were calculated based on polymer weight. 20.7 Br/1000 C detected by NMR […]

[6] abbreviates: SBR standard MAO screening: PMAO-IP, Al/Zr = 300, 160° C., 140 psig.
The mark [7] stands for this setting: MMAO-7/[CPh3 ][B(C6 F5)4 ], Al/B/M = 20/1.05/1, 35° C.
Where [8] appears, read: SBR standard trityl borate screening: [CPh3 ][B(C6 F5)4 ], 160° C., 140 psig.
The mark [9] stands for this setting: [CPh3 ][B(C6 F5)4 ], in situ alkylation, PMAO-IP (Al/M = 20) premixed with catalyst, 160° C.

As to `[Cl][Zr+2][Cl].c1cc[cH-]c1.c1cc[cH-]c1` [Cp2 ZrCl2, reference compound], the Activity in test [1] (PMAO-IP, Al/Zr = 500/1, 35° C.) stood at 2692 gPE/mmol cat*hr; in test [2] (setting [6]), 1339.9 gPE/mmol cat*hr.
The compound [ZnMe{HC(Ph2 P=NSiMe3)2 }] [AK-17] registered an Activity in test [1] (setting [7]) of 4 gPE/mmol cat*hr. Also, in test [3], the Yield per catalyst stood at 0 gPE/g Catalyst, the Yield per metal amounted to 0 gPE/g Metal and the “Yield PE” value turned out to be 0 g. Moreover, the Activity in test [2] (setting [8]) is reported as 89.78 gPE/mmol cat*hr.
In the case of “[ZrCl2 {(C(O)(NAd))C(Ph2 P=NSiMe3)2 }] [KB-103]”, the Activity in test [1] (PMAO-IP, Al/Zr = 500/1, 35° C.) is reported as 0 gPE/mmol cat*hr. For the same compound, in test [3], the Yield per catalyst is reported as 8 gPE/g Catalyst, the Yield per metal came to 1607 gPE/g Metal and the “Yield PE” value was 0.4 g. This compound also yielded an Activity in test [2] (setting [6]) of 129.0 gPE/mmol cat*hr. In test [2] (setting [9]), this compound had an Activity of 498.7 gPE/mmol cat*hr.
In the case of [ZrCl2 {C(Cy2 =NSiMe3)2 }] [Zr-3C], the Activity in test [1] (PMAO-IP, Al/Zr = 500/1, 35° C.) is given as 0 gPE/mmol cat*hr; in test [2] (setting [6]) it was 22.7 gPE/mmol cat*hr; in test [2] (setting [9]), 70.6 gPE/mmol cat*hr.
For [ZrCl2 {C(Ph2 P=NSiMe3)2 }] [Zr-3D], the Activity in test [1] (PMAO-IP, Al/Zr = 500/1, 35° C.) was 1 gPE/mmol cat*hr; in test [2] (setting [6]), 14.2 gPE/mmol cat*hr. In addition, the Yield per catalyst in test [4] turned out to be 4 gPE/g Catalyst; in test [3] it was 0 gPE/g Catalyst. Moreover, the Yield per metal in test [4] was 915 gPE/g Metal; in test [3], 0 gPE/g Metal. The “Yield PE” value in test [4] (122-137 mg supported catalyst) came to 0.6 g; in test [3] it was 0 g.
With [ZrMe2 {C(Cy2 =NSiMe3)2 }] [Zr-3C-Me2], the values for the Activity in test [1] (setting [7]), in test [5] and in test [2] (setting [8]) were 29 gPE/mmol cat*hr, 8.22 gPE/mmol cat*hr and 56.8 gPE/mmol cat*hr, respectively.
For the compound “[Zr{C(Ph2 P=NSimMe3)2 }(CH2 C6 H5)2 ] [Zr-6D]”, the Activity in test [1] (PMAO-IP, Al/Zr = 500/1, 35° C.) was 13 gPE/mmol cat*hr; in test [5] it was 10.5 gPE/mmol cat*hr; in test [2] (setting [8]), 11.6 gPE/mmol cat*hr; in test [2] ([CPh3 ][B(C6 F5)4 ], Zr(Bz)4 as scavenger at 1.2 mmol/L, 160° C.), 14.4 gPE/mmol cat*hr; in test [2] ([CPh3 ][B(C6 F5)4 ], premix catalyst and cocatalyst, 160° C.), 42.7 gPE/mmol cat*hr; in test [2] (cocatalyst B(C6 F5)3, footnote c standard trityl borate screening conditions, 160° C.) it was 9.12 gPE/mmol cat*hr.
